Measured values from US10954269B2, “Anti-inflammatory tripeptides” (Dr. August Wolff Gmbh & Co. KG Arzneimittel, priority 2013, dated 2021).

Tests used:
primary murine T-cells = test: Cytokine secretion on protein level in activated primary murine T-cells (13-plex FACS / Luminex, supernatant); type: cell-based, C57BL/6 mice; conditions: 10^−9M
Description: (§1) Primary T-cells were isolated from peripheral blood from healthy volunteers and from secondary lymphatic organs from naïve C57BL/6 mice, respectively. The cells were stimulated with phorbol-12-myristate-13-acetate (PMA)/Ionomycin and interferon-gamma (IFN-γ), respectively, for 48 h to activate the cells. The activated cells release pro-inflammatory cytokines. In parallel a human (HaCaT) keratinocyte cell line was activated with PMA/Ionomycin and IFN-γ, respectively, too. […] At the same time release of anti-inflammatory IL-10 was inhibited. Two days after addition of PMA/Ionomycin and IFN-γ, respectively, the induction of IL-1 secretion was determined in the supernatant for proving that the cells are activated. […] The anti-inflammatory properties of the tripeptides were determined 48 h and 72 h following stimulation. A 13-plex-system based FACS analysis was used for showing the reduced secretion of pro-inflammatory cytokines in the supernatant. Data for IL-1, IL-2, IL-6, IL-12p70 IL-17, IFN-γ and TNF-α are considered to be most relevant. Thus, analysis of the anti-inflammatory properties of the tripeptides is preferably based on the results obtained for these analytes. […] Using this method the gene expression of pro-inflammatory markers like IL-6, IL-17, IFN-γ and TNF-α was determined.
(§2) In a third experiment murine and human T cells and HaCaT cells were stimulated with PMA/Ionomycin and treated with Examples 14, 15, 16 and 17 at 10^−7 M, 10^−9 M and 10^−11 M. Cytokine concentrations (IFN-γ, IL-17 and IL-10 for T cells and IFN-γ for HaCat) were assessed in the supernatants using the Luminex technology. Expression of genes coding for Il-1β, IL-6 and TNF-α was determined. […] Moreover, concentrations of pro-inflammatory cytokines IFN-γ and IL-17 was reduced in the supernatants whereas the concentration of anti-inflammatory cytokine IL-10 was increased.
The anti-inflammatory and immunomodulatory effects of selected examples of the present invention were compared with common immunosuppressants. Thus, cells activated with PMA/Ionomycin and IFN-γ, respectively, were stimulated with MMF or dexamethasone. Following stimulation the secretion of pro-inflammatory cytokines was analyzed on protein and gene level (Table 9 and FIGS. 4-6).

primary human T-cells = test: Cytokine secretion on protein level in activated primary human T-cells (13-plex FACS / Luminex, supernatant); type: cell-based; conditions: 10^−9M
Description: as §1
as §2, with “increased. […]” for “increased.”
(§3) For the biological assay two human cell lines of different origin were chosen to allow for translation of the results obtained. A HaCaT cell is a cell type belonging to an immortal human keratinocyte line used in scientific research. Its use in research allows for the characterization of human keratinocyte using a model that is reproducible and representing a human epithelial cell line. In contrast human T-lymphocytes (T-cells) are a type of lymphocyte (itself a type of white blood cell) that play a central role in cell-mediated inflammation/immunity.

[1] = tested on: human keratinocyte cell line (HaCaT); test: Cytokine secretion on protein level in activated human keratinocyte cell line HaCaT (13-plex FACS / Luminex, supernatant); type: cell-based; conditions: for IL-1 cytokine concentration / IL-2 cytokine concentration / IL-4 cytokine concentration / IL-5 cytokine concentration / IL-6 cytokine concentration / IL-9 cytokine concentration / IL-10 cytokine concentration / IL-13 cytokine concentration / IL-17 cytokine concentration / TNF-α cytokine concentration / IL-12p70 cytokine concentration / IL-22 cytokine concentration / IFN-γ cytokine concentration: 10^−9M; for IL-12p70 cytokine concentration / IL-22 cytokine concentration: excluded from the final assessment
Description: as §1
as §2, with “increased. […]” for “increased.”
as §3

[2] = primary murine T-cells stimulated with IFN-γ
[3] = primary murine T-cells stimulated with PBS
[4] = primary murine T-cells stimulated with PMA/Ionomycin
[5] = primary murine T-cells stimulated with PMA/Ionomycin, 1:10 dilution of the supernatants
[6] = primary human T-cells stimulated with IFN-γ
[7] = primary human T-cells stimulated with PBS
[8] = primary human T-cells stimulated with PMA/Ionomycin
[9] = HaCaT stimulated with PMA/Ionomycin

With “H-(L)-Lys-(D)-Pro-N^α-methyl-(L)-Thr-OH [Example 2]” the IL-1 cytokine concentration (primary murine T-cells; [2]) was 22.78 pg/mL, the IL-2 cytokine concentration (primary murine T-cells; [2]) was 0 pg/mL and the IL-4 cytokine concentration (primary murine T-cells; [2]) was 0 pg/mL. The IL-5 cytokine concentration (primary murine T-cells; [2]) was 72.11 pg/mL, the IL-6 cytokine concentration (primary murine T-cells; [2]) was 23.14 pg/mL and the IL-10 cytokine concentration (primary murine T-cells; [2]) was 72.95 pg/mL. For the same substance, the IL-13 cytokine concentration (primary murine T-cells; [2]) was 0 pg/mL, the IL-17 cytokine concentration (primary murine T-cells; [2]) was 0 pg/mL and the IL-21 cytokine concentration (primary murine T-cells; [2]) was 0 pg/mL. It also gave an IL-22 cytokine concentration (primary murine T-cells; [2]) of 8.52 pg/mL, an IL-27 cytokine concentration (primary murine T-cells; [2]) of 1234.48 pg/mL and a TNF-α cytokine concentration (primary murine T-cells; [2]) of 0 pg/mL. For the same substance, the IFN-γ cytokine concentration (primary murine T-cells; [3]) was 2375.02 pg/mL, the IL-1 cytokine concentration (primary murine T-cells; [3]) was 36.6 pg/mL and the IL-2 cytokine concentration (primary murine T-cells; [3]) was 138.15 pg/mL. It also gave an IL-4 cytokine concentration (primary murine T-cells; [3]) of 0 pg/mL, an IL-5 cytokine concentration (primary murine T-cells; [3]) of 45.71 pg/mL and an IL-6 cytokine concentration (primary murine T-cells; [3]) of 0 pg/mL. For the same substance, the IL-10 cytokine concentration (primary murine T-cells; [3]) was 0 pg/mL, the IL-13 cytokine concentration (primary murine T-cells; [3]) was 0 pg/mL and the IL-17 cytokine concentration (primary murine T-cells; [3]) was 0 pg/mL. It also gave an IL-21 cytokine concentration (primary murine T-cells; [3]) of 0 pg/mL, an IL-22 cytokine concentration (primary murine T-cells; [3]) of 0 pg/mL and an IL-27 cytokine concentration (primary murine T-cells; [3]) of 0 pg/mL. For the same substance, the TNF-α cytokine concentration (primary murine T-cells; [3]) was 0 pg/mL, the IL-1 cytokine concentration (primary murine T-cells; [4]) was 0 pg/mL and the IL-4 cytokine concentration (primary murine T-cells; [4]) was 129.47 pg/mL. The IL-5 cytokine concentration (primary murine T-cells; [4]) was 350.49 pg/mL, the IL-6 cytokine concentration (primary murine T-cells; [4]) was 338.28 pg/mL and the IL-10 cytokine concentration (primary murine T-cells; [4]) was 155.42 pg/mL. For the same substance, the IL-13 cytokine concentration (primary murine T-cells; [4]) was 4703.82 pg/mL, the IL-17 cytokine concentration (primary murine T-cells; [4]) was 649.14 pg/mL and the IL-21 cytokine concentration (primary murine T-cells; [4]) was 0 pg/mL. For the same substance, the IL-22 cytokine concentration (primary murine T-cells; [4]) was 670.15 pg/mL, the IL-27 cytokine concentration (primary murine T-cells; [4]) was 778.4 pg/mL and the TNF-α cytokine concentration (primary murine T-cells; [4]) was 628.15 pg/mL. The “IFN-γ* cytokine concentration” value (primary murine T-cells; [5]) was 0 pg/mL, the “IL-2* cytokine concentration” value (primary murine T-cells; [5]) was 744.58 pg/mL and the IL-1 cytokine concentration (primary human T-cells; [6]) was 314.88 pg/mL. The IL-2 cytokine concentration (primary human T-cells; [6]) was 740.3 pg/mL, the IL-4 cytokine concentration (primary human T-cells; [6]) was 116.26 pg/mL and the IL-5 cytokine concentration (primary human T-cells; [6]) was 177.72 pg/mL. The IL-6 cytokine concentration (primary human T-cells; [6]) was 97.68 pg/mL, the IL-9 cytokine concentration (primary human T-cells; [6]) was 106.37 pg/mL and the IL-10 cytokine concentration (primary human T-cells; [6]) was 146.79 pg/mL. The IL-12p70 cytokine concentration (primary human T-cells; [6]) was 804.93 pg/mL, the IL-13 cytokine concentration (primary human T-cells; [6]) was 97.39 pg/mL and the IL-17 cytokine concentration (primary human T-cells; [6]) was 168.9 pg/mL. The IL-22 cytokine concentration (primary human T-cells; [6]) was 21970.6 pg/mL, the TNF-α cytokine concentration (primary human T-cells; [6]) was 188.29 pg/mL and the IFN-γ cytokine concentration (primary human T-cells; [7]) was 0 pg/mL. For the same substance, the IL-1 cytokine concentration (primary human T-cells; [7]) was 305.62 pg/mL, the IL-2 cytokine concentration (primary human T-cells; [7]) was 985.16 pg/mL and the IL-4 cytokine concentration (primary human T-cells; [7]) was 151.33 pg/mL. It also gave an IL-5 cytokine concentration (primary human T-cells; [7]) of 310.87 pg/mL, an IL-6 cytokine concentration (primary human T-cells; [7]) of 84.38 pg/mL and an IL-9 cytokine concentration (primary human T-cells; [7]) of 116.55 pg/mL. The IL-10 cytokine concentration (primary human T-cells; [7]) was 253.29 pg/mL, the IL-12p70 cytokine concentration (primary human T-cells; [7]) was 226.23 pg/mL and the IL-13 cytokine concentration (primary human T-cells; [7]) was 90.3 pg/mL. It also gave an IL-17 cytokine concentration (primary human T-cells; [7]) of 238.4 pg/mL, an IL-22 cytokine concentration (primary human T-cells; [7]) of 2242.06 pg/mL and a TNF-α cytokine concentration (primary human T-cells; [7]) of 211.85 pg/mL. The IFN-γ cytokine concentration (primary human T-cells; [8]) was 2726.77 pg/mL, the IL-1 cytokine concentration (primary human T-cells; [8]) was 69689.2 pg/mL and the IL-2 cytokine concentration (primary human T-cells; [8]) was 12000 pg/mL. For the same substance, the IL-4 cytokine concentration (primary human T-cells; [8]) was 239.02 pg/mL, the IL-5 cytokine concentration (primary human T-cells; [8]) was 325.76 pg/mL and the IL-6 cytokine concentration (primary human T-cells; [8]) was 1533.99 pg/mL. It also gave an IL-9 cytokine concentration (primary human T-cells; [8]) of 142.93 pg/mL, an IL-10 cytokine concentration (primary human T-cells; [8]) of 3938.15 pg/mL and an IL-12p70 cytokine concentration (primary human T-cells; [8]) of 1413.17 pg/mL. For the same substance, the IL-13 cytokine concentration (primary human T-cells; [8]) was 760.63 pg/mL, the IL-17 cytokine concentration (primary human T-cells; [8]) was 3476.92 pg/mL and the IL-22 cytokine concentration (primary human T-cells; [8]) was 24128.2 pg/mL. It also gave a TNF-α cytokine concentration (primary human T-cells; [8]) of 3600 pg/mL, an IL-1 cytokine concentration ([1]; HaCaT stimulated with IFN-γ) of 265.46 pg/mL and an IL-2 cytokine concentration ([1]; HaCaT stimulated with IFN-γ) of 96.34 pg/mL. For the same substance, the IL-4 cytokine concentration ([1]; HaCaT stimulated with IFN-γ) was 71.76 pg/mL, the IL-5 cytokine concentration ([1]; HaCaT stimulated with IFN-γ) was 109.73 pg/mL and the IL-6 cytokine concentration ([1]; HaCaT stimulated with IFN-γ) was 641.89 pg/mL. For the same substance, the IL-9 cytokine concentration ([1]; HaCaT stimulated with IFN-γ) was 104.08 pg/mL, the IL-10 cytokine concentration ([1]; HaCaT stimulated with IFN-γ) was 129.2 pg/mL and the IL-13 cytokine concentration ([1]; HaCaT stimulated with IFN-γ) was 61.18 pg/mL. The IL-17 cytokine concentration ([1]; HaCaT stimulated with IFN-γ) was 629.16 pg/mL, the TNF-α cytokine concentration ([1]; HaCaT stimulated with IFN-γ) was 79.97 pg/mL and the IL-12p70 cytokine concentration ([1]; HaCaT stimulated with IFN-γ) was 1904.09 pg/mL. For the same substance, the IL-22 cytokine concentration ([1]; HaCaT stimulated with IFN-γ) was 0 pg/mL, the IFN-γ cytokine concentration ([1]; HaCaT stimulated with PBS) was 397.45 pg/mL and the IL-1 cytokine concentration ([1]; HaCaT stimulated with PBS) was 251.25 pg/mL. It also gave an IL-2 cytokine concentration ([1]; HaCaT stimulated with PBS) of 177.85 pg/mL, an IL-4 cytokine concentration ([1]; HaCaT stimulated with PBS) of 90.8 pg/mL and an IL-5 cytokine concentration ([1]; HaCaT stimulated with PBS) of 189.12 pg/mL. For the same substance, the IL-6 cytokine concentration ([1]; HaCaT stimulated with PBS) was 75.53 pg/mL, the IL-9 cytokine concentration ([1]; HaCaT stimulated with PBS) was 139.65 pg/mL and the IL-10 cytokine concentration ([1]; HaCaT stimulated with PBS) was 151.26 pg/mL. It also gave an IL-13 cytokine concentration ([1]; HaCaT stimulated with PBS) of 69.36 pg/mL, an IL-17 cytokine concentration ([1]; HaCaT stimulated with PBS) of 569.9 pg/mL and a TNF-α cytokine concentration ([1]; HaCaT stimulated with PBS) of 84.84 pg/mL. It also gave an IL-12p70 cytokine concentration ([1]; HaCaT stimulated with PBS) of 1864.02 pg/mL, an IL-22 cytokine concentration ([1]; HaCaT stimulated with PBS) of 14446.9 pg/mL and an IFN-γ cytokine concentration [1, 9] of 704.33 pg/mL. It also gave an IL-1 cytokine concentration [1, 9] of 204.23 pg/mL, an IL-2 cytokine concentration [1, 9] of 130.08 pg/mL and an IL-4 cytokine concentration [1, 9] of 58.48 pg/mL. The IL-5 cytokine concentration [1, 9] was 129.65 pg/mL, the IL-6 cytokine concentration [1, 9] was 129.99 pg/mL and the IL-9 cytokine concentration [1, 9] was 104.14 pg/mL. It also gave an IL-10 cytokine concentration [1, 9] of 97.55 pg/mL, an IL-13 cytokine concentration [1, 9] of 69.36 pg/mL and an IL-17 cytokine concentration [1, 9] of 369.01 pg/mL. It also gave a TNF-α cytokine concentration [1, 9] of 62.15 pg/mL, an IL-12p70 cytokine concentration [1, 9] of 0 pg/mL and an IL-22 cytokine concentration [1, 9] of 14806.4 pg/mL. The “secretion / expression of pro-inflammatory cytokines (supernatant)” value ([1]; activated human keratinocytes) was “decreased secretion”.
